# Legend:
# human TLR7 = target: T1, human TLR7 (Homo sapiens, UniProt Q9NYK1); assay: TLR7 cellular reporter assay (HEK293 TLR7-NFκB-luc); assay type: cell-based; details: lowest effective concentration; HEK293 transiently transfected with TLR7 and NFκB-luc; 6 hours incubation
# T1 construct: expressed in transfected cells; host or cells: HEK293
# T1 sequence (Q9NYK1 27-1049): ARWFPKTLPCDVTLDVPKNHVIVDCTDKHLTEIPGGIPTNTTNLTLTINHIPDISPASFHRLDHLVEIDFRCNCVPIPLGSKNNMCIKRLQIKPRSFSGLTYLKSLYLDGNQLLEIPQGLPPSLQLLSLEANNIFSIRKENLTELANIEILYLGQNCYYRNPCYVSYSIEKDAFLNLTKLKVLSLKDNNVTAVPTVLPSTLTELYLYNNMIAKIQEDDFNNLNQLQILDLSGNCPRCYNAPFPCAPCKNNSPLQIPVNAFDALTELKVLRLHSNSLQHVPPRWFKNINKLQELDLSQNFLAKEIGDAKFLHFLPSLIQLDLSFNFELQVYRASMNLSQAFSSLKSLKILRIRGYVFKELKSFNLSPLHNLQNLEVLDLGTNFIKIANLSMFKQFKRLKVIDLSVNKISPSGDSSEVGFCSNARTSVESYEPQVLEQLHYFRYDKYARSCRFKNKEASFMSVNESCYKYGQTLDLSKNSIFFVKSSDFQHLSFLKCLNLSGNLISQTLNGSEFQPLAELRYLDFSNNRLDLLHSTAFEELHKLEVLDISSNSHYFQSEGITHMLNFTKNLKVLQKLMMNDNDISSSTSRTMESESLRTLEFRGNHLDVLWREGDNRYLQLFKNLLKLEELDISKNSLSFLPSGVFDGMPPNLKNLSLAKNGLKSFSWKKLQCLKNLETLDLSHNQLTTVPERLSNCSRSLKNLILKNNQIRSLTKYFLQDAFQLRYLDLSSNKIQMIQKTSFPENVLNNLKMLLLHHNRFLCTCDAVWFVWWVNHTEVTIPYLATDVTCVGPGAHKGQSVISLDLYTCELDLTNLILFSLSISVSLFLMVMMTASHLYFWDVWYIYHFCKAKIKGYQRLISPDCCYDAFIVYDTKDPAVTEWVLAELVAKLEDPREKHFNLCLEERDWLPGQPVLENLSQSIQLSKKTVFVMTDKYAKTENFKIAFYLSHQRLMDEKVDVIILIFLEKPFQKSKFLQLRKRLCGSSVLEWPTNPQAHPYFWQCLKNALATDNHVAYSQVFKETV
# Description: The ability of compounds to activate human TLR7 and TLR8 was assessed in a cellular reporter assay using HEK293 cells transiently transfected with a TLR7 or TLR8 expression vector and NFκB-luc reporter construct. Briefly, HEK293 cells were grown in culture medium (DMEM supplemented with 10% FCS and 2 mM Glutamine). For transfection of cells in 10 cm dishes, cells were detached with Trypsin-EDTA, transfected with a mix of CMV-TLR7 or TLR8 plasmid (750 ng), NFκB-luc plasmid (375 ng) and a transfection reagent and incubated 48 hours at 37° C. in a humidified 5% CO2 atmosphere. Transfected cells were then detached with Trypsin-EDTA, washed in PBS and resuspended in medium to a density of 1.67×10^5 cells/mL. Thirty microliters of cells were then dispensed into each well in 384-well plates, where 10 μL of compound in 4% DMSO was already present. Following 6 hours incubation at 37° C., 5% CO2, the luciferase activity was determined by adding 15 μl of Steady Lite Plus substrate (Perkin Elmer) to each well and readout performed on a ViewLux ultraHTS microplate imager (Perkin Elmer). Dose response curves were generated from measurements performed in quadruplicates. Lowest effective concentrations (LEC) values, defined as the concentration that induces an effect which is at least two fold above the standard deviation of the assay, were determined for each compound.
# [1] = test system: interferon production in human PBMC; assay: Interferon production in human PBMC, read out on HEK-ISRE-luc reporter cells; assay type: cell-based; details: lowest effective concentration, PBMC supernatant after overnight incubation transferred to HEK-ISRE-luc cells; for minimal effective concentration: Homo sapiens, PBMC, 24 h, read-out: PBMC HEK-ISRE-luc (LEC; μM); for PBMC HEK-ISRE-luc (LEC; μM): 24 hours
# Description: Activation of human TLR7 results in robust production of interferon by plasmacytoid dendritic cells present in human blood. The potential of compounds to induce interferon was evaluated by determination of interferon in the conditioned media from peripheral blood mononuclear cells (PBMC). The presence of interferon in the samples was determined, using an interferon reporter cell line stably expressing an interferon-stimulated responsive elements (ISRE)-luc reporter construct. The ISRE element with sequence GAAACTGAAACT (SEQ ID: 1) is highly responsive to the STAT1-STAT2-IRF9 transcription factor, which becomes activated upon binding of IFN-I to the IFN receptor. Briefly, PBMCs were prepared from buffy coats of at least two donors using a standard Ficoll centrifugation protocol. Isolated PBMCs were resuspended in RPMI medium supplemented with 10% human AB serum and 2×10^5 cells/well were dispensed into 384-well plates containing compounds (70 μL total volume). After overnight incubation of the PBMCs with the compounds, 10 μL of supernatant was transferred to 384-well plates containing 5×10^3 HEK-ISRE-luc cells/well in 30 μL (plated the day before). Following 24 hours of incubation, activation of the ISRE elements was measured by assaying luciferase activity using 40 μL/well Steady Lite Plus substrate (Perkin Elmer) and measured with ViewLux ultraHTS microplate imager (Perkin Elmer). The stimulating activity of each compound on the HEK-ISRE-luc cells was reported as LEC. The LEC in turn indicates the degree of ISRE activation on transfer of a defined amount of PBMC culture medium. Recombinant interferon alfa-2a (Roferon-A) was used as a standard control compound.
HEK293 TLR7-NFκB-luc (LEC; μM) (human TLR7),Structure (SMILES),minimal effective concentration [1],PBMC HEK-ISRE-luc (LEC; μM) [1]
1.05 µM,Nc1nc2nc3c1nc(O)n3Cc1cccc(c1)C/C=C/CCCn1ccnc1-2 [Compound 3],0.14 µM,
2.28 µM,Nc1nc2nc3c1nc(O)n3Cc1ncccc1/C=C\CCCCO2 [Compound 42],0.5 µM,
0.045 µM,COc1ccc2cc1Cn1c(O)nc3c(N)nc(nc31)OCC/C=C/C2 [Compound 73],0.01 µM,
0.154 µM,Nc1nc2nc3c1nc(O)n3Cc1cccc(c1)C/C=C\CCO2 [Compound 1],,0.081 µM
0.018 µM,COc1ccc2cc1Cn1c(O)nc3c(N)nc(nc31)OCC/C=C\C2 [Compound 72],0.0029 µM,
0.12 µM,Nc1nc2nc3c1nc(O)n3Cc1cccc(c1)OC/C=C\CO2 [Compound 22],0.054 µM,
0.11 µM,Nc1nc2nc3c1nc(O)n3Cc1cccc(c1)OCCCCCCO2 [Compound 43],0.034 µM,
2.42 µM,Nc1nc2nc3c1nc(O)n3Cc1cccc(c1)OCCCCN2 [Compound 8],0.68 µM,
0.81 µM,Nc1nc2nc3c1nc(O)n3Cc1cccc(c1)C/C=C/CCN2 [Compound 29],0.15 µM,
7.91 µM,Nc1nc2nc3c1nc(O)n3CCc1cccc(c1)OC/C=C/CCO2 [Compound 86],2.43 µM,
0.87 µM,Nc1nc2nc3c1nc(O)n3Cc1cccc(c1)C/C=C/CCC(CO)N2 (centres unmarked) [Compound 7],0.31 µM,
0.050 µM,Nc1nc2nc3c1nc(O)n3Cc1cccc(c1)OCCCCO2 [Compound 11],0.022 µM,
0.24 µM,Nc1nc2nc3c1nc(O)n3Cc1cccc(c1)CC(=O)NCCCO2 [Compound 5],0.044 µM,
1.31 µM,Nc1nc2nc3c1nc(O)n3Cc1cccc(c1)OC/C=C/CCO2 [Compound 27],0.11 µM,
0.375 µM,Nc1nc2nc3c1nc(O)n3Cc1cccc(c1)C/C=C/CCCO2 [Compound 16],0.11 µM,
0.027 µM,Nc1nc2nc3c1nc(O)n3Cc1cccc(c1)OC/C=C\CCO2 [Compound 26],0.093 µM,
0.87 µM,Nc1nc2nc3c1nc(O)n3Cc1ccc(cc1)C/C=C/CCCCO2 [Compound 30],0.56 µM,
0.21 µM,Nc1nc2nc3c1nc(O)n3Cc1cccc(n1)OC/C=C/CCCO2 [Compound 49],0.16 µM,
0.17 µM,Nc1nc2nc3c1nc(O)n3Cc1cccc(c1)OC/C=C/CCCO2 [Compound 33],0.11 µM,
0.067 µM,Nc1nc2nc3c1nc(O)n3Cc1cccc(c1)C/C=C\CCO2 [Compound 17],,0.013 µM
0.77 µM,Nc1nc2nc3c1nc(O)n3Cc1cccc(c1)C/C=C/CCCN2 [Compound 28],0.26 µM,
9.81 µM,Nc1nc2nc3c1nc(O)n3Cc1cccc(c1)C/C=C/CCCCO2 [Compound 34],0.032 µM,
1.68 µM,Nc1nc2nc3c1nc(O)n3Cc1cccc(c1)OCCCCCN2 [Compound 14],0.51 µM,
0.53 µM,Nc1nc2nc3c1nc(O)n3Cc1cccc(c1)OCCCCCO2 [Compound 38],0.027 µM,

# More lines, now with the values behind:
Structure (SMILES),HEK293 TLR7-NFκB-luc (LEC; μM) (human TLR7),minimal effective concentration [1],PBMC HEK-ISRE-luc (LEC; μM) [1]
Nc1nc2nc3c1ncn3Cc1ncccc1OC/C=C\CCO2 [Compound 79],2.34 µM,1.78 µM,
COc1cc2cc(c1)OC/C=C\COc1nc(N)c3nc(O)n(c3n1)C2 [Compound 65],0.038 µM,0.03 µM,
COc1c2cccc1OC/C=C\COc1nc(N)c3nc(O)n(c3n1)C2 [Compound 62],7.26 µM,2.03 µM,
COc1ccc2cc1OCCCCOc1nc(N)c3nc(O)n(c3n1)C2 [Compound 56],0.056 µM,0.01 µM,
Nc1nc2nc3c1nc(O)n3Cc1cccc(n1)COCCCCO2 [Compound 24],1.05 µM,0.15 µM,
Nc1nc2nc3c1nc(O)n3Cc1ncccc1OC/C=C\CCO2 [Compound 45],0.108 µM,0.01 µM,
CC1CCOc2cccc(c2)Cn2c(O)nc3c(N)nc(nc32)OC1 (centres unmarked) [Compound 71],0.12 µM,0.04 µM,
COc1ccc2cc1Cn1c(O)nc3c(N)nc(nc31)OCCCCO2 [Compound 70],0.15 µM,0.04 µM,
COc1ccc2cc1Cn1c(O)nc3c(N)nc(nc31)OCCCCC2 [Compound 69],0.2 µM,0.039 µM,
COc1c2cccc1OC/C=C/COc1nc(N)c3nc(O)n(c3n1)C2 [Compound 61],4.7 µM,4.98 µM,
Nc1nc2nc3c1nc(O)n3Cc1cccc(c1)CCCCCCn1ccnc1-2 [Compound 4],3.27 µM,0.64 µM,
Nc1nc2nc3c1nc(O)n3Cc1cc(ccn1)OC/C=C/CCO2 [Compound 51],0.74 µM,0.069 µM,
Nc1nc2nc3c1nc(O)n3CCc1cccc(c1)OC/C=C/CO2 [Compound 32],0.92 µM,0.12 µM,
COc1ccc2cc1OC/C=C\COc1nc(N)c3nc(O)n(c3n1)C2 [Compound 57],0.08 µM,0.021 µM,
COc1ccc2cc1OC/C=C\COc1nc(N)c3nc(O)n(c3n1)C2 [Compound 60],0.088 µM,,0.033 µM
Nc1nc2nc3c1ncn3Cc1ncccc1OC/C=C/CCO2 [Compound 78],9.68 µM,> 25 µM,
